What was measured:
[1] = tested on: SPI1 type III protein secretion system (SipB secretion); assay: Secondary assay: Type III-dependent protein secretion of the SipB polypeptide by S. enterica (immunoblot); type: cell-based; details: Salmonella enterica, read-out: SipB IC50(uM)
Method: Secondary assay: Type III-dependent protein secretion of the SipB polypeptide by S. enterica. The SipB protein of S. enterica is another effector of the SPI1 type III protein secretion system from S. enterica. In this cell-based procedure, the Type III-dependent secretion of SipB from the bacterial cytoplasm to the extracellular medium was measured through its reactivity with a cognate mouse monoclonal.
Salmonella enterica cells growing either in the presence or in the absence of inhibitors are induced for the production of SipB. Following an established period of growth the cells are sedimented and the amount of SipB present in the supernatant is quantified with a scanning imager following application of immunoblot techniques. Detection may employ an anti-SipB mouse monoclonal antibody (e.g., obtained from Jorge Galan, SUNY at Stony Brook, N.Y.) followed by treatment with commercially available sheep anti-mouse polyclonal antibody conjugated with horseradish peroxidase. Thereafter the membrane is treated with a peroxidase chemiluminescent substrate and exposed to film for an appropriate exposure time. Inhibition may be measured relative to untreated controls.

[2] = tested on: SPI1 type III protein secretion system (SopE-Bla secretion); assay: Primary assay: Type III protein secretion of the chimeric SopE-Bla polypeptide by Salmonella enterica (nitrocefin hydrolysis); type: cell-based; details: read-out: SopE IC50(uM)
Description: Primary assay: Type III protein secretion of the chimeric SopÉ-Bla polypeptide by Salmonella enterica. This procedure is a cell-based assay that measures the type III-dependent secretion by Salmonella enterica of a plasmid-encoded chimeric polypeptide whose synthesis can be regulated, and which is endowed with an enzymatic activity that can be monitored calorimetrically by hydrolysis of a substrate that is unable to penetrate into the bacterial cytoplasm within the time constraints of the reaction. Thus, the colorimetric reaction is not influenced by SopÉ-Bla polypeptide in the bacterial cytoplasm. Instead, it effectively measures the amount of polypeptide that has been secreted from the S. enterica cytoplasm to the extracellular medium via type III system protein secretion.
The SopÉ-Bla recombinant polypeptide consists of two functionally distinct domains spliced together. The N-terminus domain is encoded by a polynucleotide region specifying the signal for type III secretion of the SopE polypeptide of S. enterica, an effector of the SPI1 type III protein secretion system. The C-terminus domain of SopÉ-Bla consists of a 263 amino acid peptide sequence that corresponds to the TEM-1 β-lactamase expressed by plasmid pBR322 but without its N-terminal signal sequence. The TEM-1 β-lactamase part of the SopÉ-Bla chimeric polypeptide is used as a reporter enzyme. It is capable of hydrolyzing nitrocefin resulting in a product whose accumulation can be monitored by colorimetric detection. The secretion of the SopÉ-Bla chimeric polypeptide from the cytoplasm to the extracellular medium is dependent on type III protein secretion.
For this procedure, cells grown under conditions known to favor a functional SPI1 secretion system are induced for expression of the SopÉ-Bla protein and grown either in the presence or in the absence of putative inhibitors for determined time. Nitrocefin is then added to the various cultures and its hydrolysis are used for quantitation. An inhibitor of Type III protein secretion is generally a compound that reduces the signal of the enzymatic reaction by decreasing the amount of SopÉ-Bla secreted into the extracellular medium.

Row | SMILES | IC50 [1] [µM] | IC50 [2] [µM]
1 | O=C(Nc1cc(-c2cccc3ccccc23)cn(C(CSCc2ccccc2)C(=O)O)c1=O)c1ccc(C(F)(F)F)cc1 (stereo in doubt) [Compound 16, (R)-3-Benzylsulfanyl-2-[5-naphthalen-1-yl-2-oxo-3-(4-trifluoromethyl-benzoylamino)-2H-pyridin-1-yl]propionic acid] | > 100 | 6.4
2 | O=C(Nc1cc(-c2ccc(-c3ccccc3)cc2)cn([C@@H](Cc2ccccc2)C(=O)O)c1=O)c1ccc(C(F)(F)F)cc1 [Compound 2, (S)-2-[5-Biphenyl-4-yl-2-oxo-3-(4-trifluoromethylbenzoylamino)-2H-pyridin-1-yl]-3-phenylpropionic acid] | > 100 | 9.3
3 | O=C(Nc1cc(-c2ccc3ccccc3c2)cn([C@@H](Cc2ccccc2)C(=O)O)c1=O)c1ccc(C(F)(F)F)cc1 [Compound 3, (S)-2-[5-Naphthalen-2-yl-2-oxo-3-(4-trifluoromethylbenzoylamino)-2H-pyridin-1-yl]-3-phenylpropionic acid] | > 100 | 28.5
4 | O=C(Nc1cc(-c2cncnc2)cn([C@@H](Cc2ccccc2)C(=O)O)c1=O)c1ccc(C(F)(F)F)cc1 [Compound 7, (S)-2-[2-Oxo-5-pyrimidin-5-yl-3-(4-trifluoromethylbenzoylamino)-2H-pyridin-1-yl]-3-phenylpropionic acid] | > 100 | 82.3
5 | CN(C)c1ccc(-c2cc(NC(=O)c3ccc(C(F)(F)F)cc3)c(=O)n([C@@H](COCc3ccccc3)C(=O)O)c2)cc1 [Compound 11, (S)-3-Benzyloxy-2-[5-(4-dimethylaminophenyl)-2-oxo-3-(4-trifluoromethyl-benzoylamino)-2H-pyridin-1-yl]propionic acid] | > 100 | 76
6 | CC(C)Oc1ccc(-c2cc(NC(=O)c3ccc(C(F)(F)F)cc3)c(=O)n([C@@H](COCc3ccccc3)C(=O)O)c2)cc1 [Compound 12, (S)-3-Benzyloxy-2-[5-(4-isopropoxyphenyl)-2-oxo-3-(4-trifluoromethyl-benzoylamino)-2H-pyridin-1-yl]propionic acid] | > 100 | 67.2
7 | O=C(Nc1cc(-c2ccc3ccccc3c2)cn([C@@H](COCc2ccccc2)C(=O)O)c1=O)c1ccc(C(F)(F)F)cc1 [Compound 13, (S)-3-Benzyloxy-2-[5-naphthalen-2-yl-2-oxo-3-(4-trifluoromethylbenzoylamino)-2H-pyridin-1-yl]propionic acid] | > 100 | 48
8 | O=C(Nc1cc(-c2ccc(-c3ccccc3)cc2)cn(C(Cc2ccc(Cl)cc2)C(=O)O)c1=O)c1ccc(C(F)(F)F)cc1 (stereo not shown) [Compound 17, 2-[5-Biphenyl-4-yl-2-oxo-3-(4-trifluoromethylbenzoylamino)-2H-pyridin-1-yl]-3-(4-chlorophenyl)propionic acid] | > 100 | 2
9 | O=C(Nc1cc(-c2ccc(Oc3ccccc3)cc2)cn(C(Cc2ccc(Cl)cc2)C(=O)O)c1=O)c1ccc(C(F)(F)F)cc1 (stereo not shown) [Compound 18, 3-(4-Chlorophenyl)-2-[2-oxo-5-(4-phenoxyphenyl)-3-(4-trifluoromethyl-benzoylamino)-2H-pyridin-1-yl]propionic acid] | > 100 | 2.3
10 | O=C(Nc1cc(-c2cccc3ccccc23)cn(C(Cc2ccc(Cl)cc2)C(=O)O)c1=O)c1ccc(C(F)(F)F)cc1 (stereo not shown) [Compound 19, 3-(4-Chlorophenyl)-2-[5-naphthalen-1-yl-2-oxo-3-(4-trifluoromethyl-benzoylamino)-2H -1-yl]propionic acid] | > 100 | 5.5
11 | O=C(Nc1cc(-c2cccc(C(F)(F)F)c2)cn(C(Cc2ccc(Cl)cc2)C(=O)O)c1=O)c1ccc(Oc2ccccc2)cc1 (stereo not shown) [Compound 23, 3-(4-Chlorophenyl)-2-[2-oxo-3-(4-phenoxybenzoylamino)-5-(3-trifluoromethyl-phenyl)-2H-pyridin-1-yl]propionic acid] | > 100 | 9.8
12 | O=C(Nc1cc(-c2cc3ccccc3o2)cn(C(Cc2ccc(Cl)cc2)C(=O)O)c1=O)c1ccc(C(F)(F)F)cc1 (stereo not shown) [Compound 25, 2-[5-Benzofuran-2-yl-2-oxo-3-(4-trifluoromethylbenzoylamino)-2H-pyridin-1-yl]-3-(4-chlorophenyl)propionic acid] | > 100 | 3.7
13 | O=C(Nc1cc(-c2cc3ccccc3s2)cn(C(Cc2ccc(Cl)cc2)C(=O)O)c1=O)c1ccc(C(F)(F)F)cc1 (stereo not shown) [Compound 26, 2-[5-Benzo[b]thiophen-2-yl-2-oxo-3-(4-trifluoromethylbenzoylamino)-2H-pyridin-1-yl]-3-(4-chlorophenyl)propionic acid] | > 100 | 2.4
14 | CC(=O)c1ccc(-c2cc(NC(=O)c3ccc(C(F)(F)F)cc3)c(=O)n(C(Cc3ccc(Cl)cc3)C(=O)O)c2)s1 (stereo not shown) [Compound 27, 2-[5-(5-Acetylthiophen-2-yl)-2-oxo-3-(4-trifluoromethylbenzoylamino)-2H-pyridin-1-yl]-3-(4-chlorophenyl)propionic acid] | > 100 | 34.2
15 | CC(=O)Nc1cccc(-c2cc(NC(=O)c3ccc(C(F)(F)F)cc3)c(=O)n(C(Cc3ccc(Cl)cc3)C(=O)O)c2)c1 (stereo not shown) [Compound 28, 2-[5-(3-Acetylaminophenyl)-2-oxo-3-(4-trifluoromethylbenzoylamino)-2H-pyridin-1-yl]-3-(4-chlorophenyl)propionic acid] | > 100 | 52.4
16 | O=C(Nc1cc(-c2ccc(O)cc2)cn(C(Cc2ccc(Cl)cc2)C(=O)O)c1=O)c1ccc(C(F)(F)F)cc1 (stereo not shown) [Compound 29, 3-(4-Chlorophenyl)-2-[5-(4-hydroxyphenyl)-2-oxo-3-(4-trifluoromethyl-benzoylamino)-2H-pyridin-1-yl]propionic acid] | > 100 | 31.8
17 | O=C(Nc1cc(C#Cc2ccccc2)cn(C(Cc2ccc(Cl)cc2)C(=O)O)c1=O)c1ccc(C(F)(F)F)cc1 (stereo not shown) [Compound 31, 3-(4-Chlorophenyl)-2-[2-oxo-5-phenylethynyl-3-(4-trifluoromethylbenzoylamino)-2H-pyridin-1-yl]propionic acid] | > 100 | 34.2
18 | O=C(Nc1cc(-c2ccccc2)cn(C(Cc2ccc(Cl)cc2)C(=O)O)c1=O)c1ccc(-c2ccccc2)cc1 (stereo not shown) [Compound 32, 2-{3-[(Biphenyl-4-carbonyl)amino]-2-oxo-5-phenyl-2H-pyridin-1-yl}-3-(4-chloro-phenyl)propionic acid] | > 100 | 2.3
19 | O=C(Nc1cc(-c2cc(F)cc(F)c2)cn(C(Cc2ccc(Cl)cc2)C(=O)O)c1=O)c1ccc(-c2ccccc2)cc1 (stereo not shown) [Compound 36, [3-[(Biphenyl-4-carbonyl)amino]-5-(3,5-difluorophenyl)-2-oxo-2H-pyridin-1-yl]-3-(4-chlorophenyl)propionic acid] | > 100 | 2.4
20 | O=C(Nc1cc(-c2ccc(Br)cc2)cn(C(Cc2ccc(Cl)cc2)C(=O)O)c1=O)c1ccc(-c2ccccc2)cc1 (stereo not shown) [Compound 37, 2-[3-[(Biphenyl-4-carbonyl)amino]-5-(4-bromophenyl)-2-oxo-2H-pyridin-1-yl]-3-(4-chlorophenyl)propionic acid] | > 100 | 1.5
21 | O=C(Nc1cc(-c2cccc3ccccc23)cn(C(Cc2ccc(Cl)cc2)C(=O)O)c1=O)c1ccc(-c2ccccc2)cc1 (stereo not shown) [Compound 46, 2-{3-[(Biphenyl-4-carbonyl)amino]-5-naphthalen-1-yl-2-oxo-2H-pyridin-1-yl}-3-(4-chlorophenyl)propionic acid] | > 100 | 1.1
22 | O=C(Nc1cc(-c2ccc(Cl)cc2)cn(C(Cc2ccc(Cl)cc2)C(=O)O)c1=O)c1ccc(Oc2ccccc2)cc1 (stereo not shown) [Compound 52, 3-(4-Chlorophenyl)-2-[5-(4-chlorophenyl)-2-oxo-3-(4-phenoxybenzoylamino)-2H-pyridin 1-yl]propionic acid] | > 100 | 9
23 | O=C(Nc1cc(-c2ccc(C(F)(F)F)cc2)cn(C(Cc2ccc(Cl)cc2)C(=O)O)c1=O)c1ccc(Oc2ccccc2)cc1 (stereo not shown) [Compound 54, 3-(4-Chlorophenyl)-2-[2-oxo-3-(4-phenoxybenzoylamino)-5-(4-trifluoromethyl-phenyl)-2H-pyridin-1-yl]propionic acid] | > 100 | 16.6
